Experimental data: ChEMBL document CHEMBL3885881, “DrugMatrix”

Species on record: Rattus norvegicus
Assay type: toxicity, organism-based, Sprague-Dawley
Conditions: in vivo, po, route oral GAVAGE, […]; for ABSOLUTE EOSINOPHIL / ABSOLUTE LYMPHOCYTE / ABSOLUTE MONOCYTE / ABSOLUTE SEGMENTED NEUTROPHIL / BASOPHIL / EOSINOPHIL / ERYTHROCYTE COUNT / HEMATOCRIT / HEMOGLOBIN / LEUKOCYTE COUNT / LYMPHOCYTE / MEAN CORPUSCULAR HEMOGLOBIN / MEAN CORPUSCULAR HEMOGLOBIN CONCENTRATION / MEAN CORPUSCULAR VOLUME / MONOCYTE / NEUTROPHIL / NUCLEATED RED BLOOD CELLS / PLATELET COUNT: tissue Blood; for ALANINE AMINOTRANSFERASE / ALBUMIN / ALKALINE PHOSPHATASE / ASPARTATE AMINOTRANSFERASE / BLOOD UREA NITROGEN / CARBON DIOXIDE / CHLORIDE / CHOLESTEROL / CREATINE PHOSPHOKINASE / CREATININE / GLUCOSE / LACTATE DEHYDROGENASE / LIPASE / PHOSPHORUS / POTASSIUM / SODIUM / TOTAL BILIRUBIN / TOTAL PROTEIN / URIC ACID: tissue Plasma
[1] = 30 mg/kg, 24 h, dose level Low, time 1 day
[2] = 60 mg/kg, 6 h, dose level High, time 0.25 day
[3] = 60 mg/kg, 24 h, dose level High, time 1 day

Description: DrugMatrix - Regimen: Single

S=C=Nc1cccc2ccccc12 [1-NAPHTHYLISOTHIOCYANATE]
ABSOLUTE EOSINOPHIL [1]: 0 CELLS/uL | ABSOLUTE LYMPHOCYTE [1]: 8784 CELLS/uL | ABSOLUTE MONOCYTE [1]: 359.5 CELLS/uL | ABSOLUTE SEGMENTED NEUTROPHIL [1]: 2189.83 CELLS/uL | BASOPHIL [1]: 0% | EOSINOPHIL [1]: 0% | ERYTHROCYTE COUNT [1]: 5.45 x10E6/uL | HEMATOCRIT [1]: 34.5% | HEMOGLOBIN [1]: 13.67 G/DL | LEUKOCYTE COUNT [1]: 11.33 x10E3/uL | LYMPHOCYTE [1]: 78.33% | MEAN CORPUSCULAR HEMOGLOBIN [1]: 25.1 pg | MEAN CORPUSCULAR HEMOGLOBIN CONCENTRATION [1]: 39.62 G/DL | MEAN CORPUSCULAR VOLUME [1]: 63.35 fL | MONOCYTE [1]: 2.83% | NEUTROPHIL [1]: 18.83% | NUCLEATED RED BLOOD CELLS [1]: 0 /100WBC | PLATELET COUNT [1]: 1092.83 x10E3/uL | ALANINE AMINOTRANSFERASE [1]: 122 u/L | ALBUMIN [1]: 3.92 G/DL | ALKALINE PHOSPHATASE [1]: 386.33 u/L | ASPARTATE AMINOTRANSFERASE [1]: 211 u/L | BLOOD UREA NITROGEN [1]: 11.67 mg/dL | CARBON DIOXIDE [1]: 35.83 mmol/L | CHLORIDE [1]: 97.33 MEQ/L | CHOLESTEROL [1]: 83.5 mg/dL | CREATINE PHOSPHOKINASE [1]: 327.33 u/L | CREATININE [1]: 0.3 mg/dL | GLUCOSE [1]: 139.33 mg/dL | LACTATE DEHYDROGENASE [1]: 171 u/L | LIPASE [1]: 9.33 u/L | PHOSPHORUS [1]: 9.87 mg/dL | POTASSIUM [1]: 4.44 MEQ/L | SODIUM [1]: 145.25 MEQ/L | TOTAL BILIRUBIN [1]: 1.02 mg/dL | TOTAL PROTEIN [1]: 6.05 G/DL | URIC ACID [1]: 0.5 mg/dL | ABSOLUTE EOSINOPHIL [2]: 98.5 CELLS/uL | ABSOLUTE LYMPHOCYTE [2]: 11852.33 CELLS/uL | ABSOLUTE MONOCYTE [2]: 375.83 CELLS/uL | ABSOLUTE SEGMENTED NEUTROPHIL [2]: 1556.67 CELLS/uL | BASOPHIL [2]: 0% | EOSINOPHIL [2]: 0.67% | ERYTHROCYTE COUNT [2]: 5.41 x10E6/uL | HEMATOCRIT [2]: 36.93% | HEMOGLOBIN [2]: 13.93 G/DL | LEUKOCYTE COUNT [2]: 13.88 x10E3/uL | LYMPHOCYTE [2]: 84.83% | MEAN CORPUSCULAR HEMOGLOBIN [2]: 25.75 pg | MEAN CORPUSCULAR HEMOGLOBIN CONCENTRATION [2]: 37.73 G/DL | MEAN CORPUSCULAR VOLUME [2]: 68.25 fL | MONOCYTE [2]: 2.67% | NEUTROPHIL [2]: 11.83% | NUCLEATED RED BLOOD CELLS [2]: 0 /100WBC | PLATELET COUNT [2]: 1029 x10E3/uL | ALANINE AMINOTRANSFERASE [2]: 53.6 u/L | ALBUMIN [2]: 4.36 G/DL | ALKALINE PHOSPHATASE [2]: 315.4 u/L | ASPARTATE AMINOTRANSFERASE [2]: 106 u/L | BLOOD UREA NITROGEN [2]: 9.8 mg/dL | CARBON DIOXIDE [2]: 17.2 mmol/L | CHLORIDE [2]: 104.6 MEQ/L | CHOLESTEROL [2]: 74.6 mg/dL | CREATINE PHOSPHOKINASE [2]: 475 u/L | CREATININE [2]: 0.21 mg/dL | GLUCOSE [2]: 258.8 mg/dL | LACTATE DEHYDROGENASE [2]: 229.4 u/L | LIPASE [2]: 11 u/L | PHOSPHORUS [2]: 16.5 mg/dL | POTASSIUM [2]: 5.82 MEQ/L | SODIUM [2]: 145.04 MEQ/L | TOTAL BILIRUBIN [2]: 0.22 mg/dL | TOTAL PROTEIN [2]: 5.82 G/DL | URIC ACID [2]: 2.54 mg/dL | ABSOLUTE EOSINOPHIL [3]: 30 CELLS/uL | ABSOLUTE LYMPHOCYTE [3]: 8567.5 CELLS/uL | ABSOLUTE MONOCYTE [3]: 316 CELLS/uL | ABSOLUTE SEGMENTED NEUTROPHIL [3]: 2953.17 CELLS/uL | BASOPHIL [3]: 0% | EOSINOPHIL [3]: 0.33% | ERYTHROCYTE COUNT [3]: 5.57 x10E6/uL | HEMATOCRIT [3]: 34.8% | HEMOGLOBIN [3]: 13.72 G/DL | LEUKOCYTE COUNT [3]: 11.87 x10E3/uL | LYMPHOCYTE [3]: 71.17% | MEAN CORPUSCULAR HEMOGLOBIN [3]: 24.67 pg | MEAN CORPUSCULAR HEMOGLOBIN CONCENTRATION [3]: 39.42 G/DL | MEAN CORPUSCULAR VOLUME [3]: 62.55 fL | MONOCYTE [3]: 2.67% | NEUTROPHIL [3]: 25.83% | NUCLEATED RED BLOOD CELLS [3]: 0 /100WBC | PLATELET COUNT [3]: 1101.5 x10E3/uL | ALANINE AMINOTRANSFERASE [3]: 142.33 u/L | ALBUMIN [3]: 3.88 G/DL | ALKALINE PHOSPHATASE [3]: 513.83 u/L | ASPARTATE AMINOTRANSFERASE [3]: 288 u/L | BLOOD UREA NITROGEN [3]: 11.17 mg/dL | CARBON DIOXIDE [3]: 34.17 mmol/L | CHLORIDE [3]: 95.83 MEQ/L | CHOLESTEROL [3]: 118 mg/dL | CREATINE PHOSPHOKINASE [3]: 254.17 u/L | CREATININE [3]: 0.34 mg/dL | GLUCOSE [3]: 133.33 mg/dL | LACTATE DEHYDROGENASE [3]: 241.83 u/L | LIPASE [3]: 80.33 u/L | PHOSPHORUS [3]: 10.95 mg/dL | POTASSIUM [3]: 3.66 MEQ/L | SODIUM [3]: 144.63 MEQ/L | TOTAL BILIRUBIN [3]: 2.2 mg/dL | TOTAL PROTEIN [3]: 6.13 G/DL | URIC ACID [3]: 0.45 mg/dL
